Data on 49 compounds can be found in the Biogen ADME set (Fang et al. 2023).

Each structure is given as a SMILES string. Converted amounts (≈) assume the structure as drawn.

The conditions of the data set: for aqueous solubility: pH 6.8.

For orientation: aqueous solubility means the concentration that dissolves in the medium under given conditions. For the compound `COCC1(c2nc(-c3ccncc3)nn2Cc2cccc(Cl)c2)CC1`, the MDR1-MDCK efflux ratio turned out to be 0.731; the intrinsic clearance, human liver microsomes is 341 mL/min/kg; the intrinsic clearance, rat liver microsomes came out at 1420 mL/min/kg; the aqueous solubility came out at 28 µg/mL (≈ 79 µM).
As to `O=c1c2ccccc2nc2n1CCN(Cc1ccc(F)cc1)CC2`, the MDR1-MDCK efflux ratio stood at 0.471; the intrinsic clearance, human liver microsomes amounted to 37.1 mL/min/kg; the intrinsic clearance, rat liver microsomes was found to be 565 mL/min/kg.
As for `Cc1cc(N(C)C)nc(N(C)Cc2csc(C)n2)n1`, the MDR1-MDCK efflux ratio stood at 0.632; the intrinsic clearance, human liver microsomes came out at 30.6 mL/min/kg; the intrinsic clearance, rat liver microsomes was 681 mL/min/kg; the aqueous solubility worked out at 47.4 µg/mL (≈ 171 µM).
Take `Cc1cnn(CC2CC2)c1NC(=O)/C=C/c1ccccc1`: the MDR1-MDCK efflux ratio was 2.67; the intrinsic clearance, human liver microsomes turned out to be 13.8 mL/min/kg; the intrinsic clearance, rat liver microsomes was found to be 318 mL/min/kg; the aqueous solubility came out at 32.7 µg/mL (≈ 116 µM).
As for `CC(C)c1cnc(COc2ccc(Br)nc2)o1`, the MDR1-MDCK efflux ratio came to 0.527; the intrinsic clearance, human liver microsomes is 73 mL/min/kg; the intrinsic clearance, rat liver microsomes is 983 mL/min/kg; the aqueous solubility turned out to be 41.7 µg/mL (≈ 140 µM).
Compound `Nc1c(C(=O)NCC2CCCO2)sc(=S)n1-c1ccc(Cl)cc1` (stereo unspecified) displayed an intrinsic clearance, human liver microsomes of 35.3 mL/min/kg and an intrinsic clearance, rat liver microsomes of 92.3 mL/min/kg.
Consider `Cc1cc(NCC2(c3ccncc3)CC2)ncn1`, for which the MDR1-MDCK efflux ratio came out at 2.49; the intrinsic clearance, human liver microsomes is at most 4.74 mL/min/kg; the intrinsic clearance, rat liver microsomes amounted to 198 mL/min/kg.
In turn, `Cc1csc(NC(=O)c2cccc(C)c2C)n1` showed an intrinsic clearance, human liver microsomes of 173 mL/min/kg; an intrinsic clearance, rat liver microsomes of 916 mL/min/kg; an aqueous solubility of 11.3 µg/mL (≈ 45.8 µM).
As to `N#CC[C@H](C1CCCC1)n1cc(-c2ncnc3[nH]ccc23)cn1`, the MDR1-MDCK efflux ratio stood at 10.9; the fraction unbound, human plasma came out at 0.0428; the fraction unbound, rat plasma turned out to be 0.176; the intrinsic clearance, rat liver microsomes stood at 405 mL/min/kg. Moreover, the aqueous solubility turned out to be 34.5 µg/mL (≈ 113 µM).
Regarding `CN1CCN(c2ccc(NC(=O)c3ccc(S(=O)(=O)N4CCCc5ccccc54)cc3)cc2)CC1`, the MDR1-MDCK efflux ratio came to 8.78; the intrinsic clearance, human liver microsomes is 526 mL/min/kg; the intrinsic clearance, rat liver microsomes was 727 mL/min/kg; the aqueous solubility turned out to be 10.1 µg/mL (≈ 20.6 µM).
As to `Clc1cnc(NCC2(c3ccncc3)CC2)nc1`, the intrinsic clearance, human liver microsomes was found to be 26 mL/min/kg and the intrinsic clearance, rat liver microsomes came out at 472 mL/min/kg.
Regarding `C=CCNC1=C2C[C@@H](C)C[C@@H](OC)[C@@H](O)[C@@H](C)/C=C(\C)[C@@H](OC(N)=O)[C@@H](OC)/C=C\C=C(/C)C(=O)NC(=CC1=O)C2=O`, the intrinsic clearance, human liver microsomes was found to be 489 mL/min/kg and the intrinsic clearance, rat liver microsomes came to 1010 mL/min/kg.
`Cc1nnc(-c2cccc(C(=O)O)c2)o1` yielded an intrinsic clearance, human liver microsomes of at most 4.74 mL/min/kg; an intrinsic clearance, rat liver microsomes of at most 10.7 mL/min/kg; an aqueous solubility of 34.4 µg/mL (≈ 168 µM).
`O=C(CCNC(=O)c1ccc(OC(F)(F)F)cc1)N[C@@H]1CCCc2ccccc21`: the MDR1-MDCK efflux ratio amounted to 3.14; the fraction unbound, human plasma came to 0.0336; the fraction unbound, rat plasma was 0.0427; the intrinsic clearance, human liver microsomes stood at 154 mL/min/kg. The same compound registered an intrinsic clearance, rat liver microsomes of 797 mL/min/kg and an aqueous solubility of 4.6 µg/mL (≈ 11.3 µM).
For the compound `Nc1ncccc1OCc1cccc(Cl)c1`, the intrinsic clearance, human liver microsomes came out at 157 mL/min/kg and the intrinsic clearance, rat liver microsomes amounted to 721 mL/min/kg.
The compound `N#CCc1ccc(NC(=O)C2CC2)cc1` registered an aqueous solubility of 30.6 µg/mL (≈ 153 µM).
As for `C[C@@H](NC(=O)N1CCC2(CCN(C)CC2)C1)c1ccc(F)cc1`, the MDR1-MDCK efflux ratio came out at 1.75; the intrinsic clearance, human liver microsomes is at most 4.74 mL/min/kg; the intrinsic clearance, rat liver microsomes is at most 10.7 mL/min/kg.
As to `Cc1nc(N(C)C)nc(C)c1NC(=O)C1CCCCC1`, the MDR1-MDCK efflux ratio was 0.656; the intrinsic clearance, human liver microsomes turned out to be 6.25 mL/min/kg; the intrinsic clearance, rat liver microsomes worked out at 75.4 mL/min/kg; the aqueous solubility came to 49.3 µg/mL (≈ 179 µM).
As to `Cc1nc(-c2cc(C)on2)n(CCc2ccccc2)n1`, the MDR1-MDCK efflux ratio amounted to 0.6; the intrinsic clearance, human liver microsomes worked out at 92.1 mL/min/kg; the intrinsic clearance, rat liver microsomes came out at 3950 mL/min/kg; the aqueous solubility turned out to be 21.5 µg/mL (≈ 80.2 µM).
Regarding `C#CCNC(=O)CN1CCCN(C(=O)c2cccc(C)n2)CC1`, the MDR1-MDCK efflux ratio was 32.5; the intrinsic clearance, human liver microsomes was at most 4.74 mL/min/kg; the intrinsic clearance, rat liver microsomes was 15.7 mL/min/kg; the aqueous solubility worked out at 36.5 µg/mL (≈ 116 µM).
For `Cc1cc(Nc2ccc(F)cn2)cc(C2CCN(C(=O)COc3ccccc3F)C2)n1` (stereo unspecified), in that order: 9.5, 115 mL/min/kg, 507 mL/min/kg and 55.6 µg/mL (≈ 131 µM).
Turning to `O=C(c1ccco1)N1CCCC(C(=O)N2CCc3ccccc3C2)C1` (stereo unspecified), the aqueous solubility is 69.8 µg/mL (≈ 206 µM).
With `Nc1ncnc2ccc(-c3ccnc(F)c3)nc12`, the MDR1-MDCK efflux ratio was 0.726; the intrinsic clearance, human liver microsomes is at most 4.74 mL/min/kg; the intrinsic clearance, rat liver microsomes was at most 10.7 mL/min/kg.
For `Cc1c[nH]c(C(=O)NCC2(N3CCCCC3)CCCC2)n1`, in that order: 20.3, 7.62 mL/min/kg and 191 mL/min/kg.
The compound `Cc1cc(C)c(S(=O)(=O)Nc2ccccc2)c(C)c1` had an intrinsic clearance, human liver microsomes of 137 mL/min/kg and an intrinsic clearance, rat liver microsomes of 4160 mL/min/kg.
Take `CCc1cc2c(=O)[nH]c(-c3ccccn3)nc2s1`: the aqueous solubility is 49 µg/mL (≈ 190 µM).
In the case of `Cn1cnnc1-c1cccc(NS(=O)(=O)c2cc3c(cc2Cl)OCCO3)c1`, the MDR1-MDCK efflux ratio was 16.9; the intrinsic clearance, human liver microsomes amounted to 16 mL/min/kg; the intrinsic clearance, rat liver microsomes worked out at 308 mL/min/kg.
For `COc1ccc(CN(C)C(=O)Nc2ccccc2)cc1F`, the MDR1-MDCK efflux ratio turned out to be 0.669; the intrinsic clearance, human liver microsomes was found to be 18.2 mL/min/kg; the intrinsic clearance, rat liver microsomes was 644 mL/min/kg; the aqueous solubility turned out to be 45.9 µg/mL (≈ 159 µM).
As for `CCn1nc(C2CCCC2)nc1-c1ccncc1`, the MDR1-MDCK efflux ratio was determined as 0.716; the intrinsic clearance, human liver microsomes was found to be 24.6 mL/min/kg; the intrinsic clearance, rat liver microsomes came to 370 mL/min/kg; the aqueous solubility is 27 µg/mL (≈ 111 µM).
For `Fc1cccc(OC2CCN(Cc3nc4ccccc4[nH]3)CC2)c1`, in that order: 0.816, 93.3 mL/min/kg, 1960 mL/min/kg and 54.9 µg/mL (≈ 169 µM).
For `Cc1nnc(N2CCC(CNc3ccc(C#N)cn3)C2)c(C#N)c1C` (stereo unspecified), the aqueous solubility came out at 8.15 µg/mL (≈ 24.4 µM).
`CC(C)(O)CCn1cc2cc(NC(=O)c3cccc(C(F)F)n3)c(OCC3COC3)cc2n1`: the MDR1-MDCK efflux ratio is 11.7; the intrinsic clearance, human liver microsomes came out at 7.8 mL/min/kg; the intrinsic clearance, rat liver microsomes is 72.1 mL/min/kg.
With `O=C(Nc1nc2ccccc2[nH]1)c1ccc(-n2cccc2)cc1`, the MDR1-MDCK efflux ratio worked out at 0.359.
In the case of `COc1cc(OC)cc(-n2c(S)nnc2COc2cccc3ccccc23)c1`, the MDR1-MDCK efflux ratio came to 1.65 and the aqueous solubility came out at 0.28 µg/mL (≈ 0.712 µM).
In the case of `COCC1(CNC(=O)c2ccc(-n3cccn3)cc2)CCC1`, the MDR1-MDCK efflux ratio stood at 0.596; the intrinsic clearance, human liver microsomes worked out at 18.2 mL/min/kg; the intrinsic clearance, rat liver microsomes came out at 492 mL/min/kg.
The compound `O=C(Nc1nc2ccccc2[nH]1)c1cc(-c2ccccc2)nc2ccccc12` had an aqueous solubility of 0.45 µg/mL (≈ 1.23 µM).
As for `CN1CCN(C(=O)C2(NC(=O)c3ccc(C(F)(F)F)cc3)CCCC2)CC1`, the MDR1-MDCK efflux ratio came to 86; the intrinsic clearance, human liver microsomes is at most 4.74 mL/min/kg; the intrinsic clearance, rat liver microsomes was at most 10.7 mL/min/kg; the aqueous solubility turned out to be 76.1 µg/mL (≈ 199 µM).
For `O=C(CSc1nc2nc(O)cc(O)c2s1)c1ccc(-c2ccccc2)cc1`, in that order: 0.876, 139 mL/min/kg, 128 mL/min/kg and 7 µg/mL (≈ 17.7 µM).
For the compound `O=c1[nH]c2nc(N3CCc4ccccc4C3)ncc2c(=O)n1-c1ccccc1`, the MDR1-MDCK efflux ratio is 0.445 and the aqueous solubility was found to be 0.2 µg/mL (≈ 0.539 µM).
`Oc1c(C(c2ccc(F)cc2)N2CCCCC2)ccc2cccnc12` (stereo unspecified) showed an intrinsic clearance, human liver microsomes of 35.1 mL/min/kg and an intrinsic clearance, rat liver microsomes of 382 mL/min/kg.
`COc1cc2ncnc(Nc3cccc(O)c3)c2cc1OC` gave a fraction unbound, human plasma of 0.0987; a fraction unbound, rat plasma of 0.0447; an intrinsic clearance, human liver microsomes of 22 mL/min/kg; an intrinsic clearance, rat liver microsomes of 154 mL/min/kg.
As to `Cc1cc(C)nc(-n2nc(C)c(CC(=O)NC3CCCCCC3)c2C)n1`, the MDR1-MDCK efflux ratio came to 33.3; the intrinsic clearance, human liver microsomes came to 43.9 mL/min/kg; the intrinsic clearance, rat liver microsomes was 832 mL/min/kg; the aqueous solubility was 54.6 µg/mL (≈ 154 µM).
On to `O=C(Nc1nncs1)c1cccnc1`, for which the MDR1-MDCK efflux ratio was 1.04; the intrinsic clearance, human liver microsomes is at most 4.74 mL/min/kg; the intrinsic clearance, rat liver microsomes is at most 10.7 mL/min/kg; the aqueous solubility worked out at 44.3 µg/mL (≈ 215 µM).
In turn, `CN1CCN(C(=O)c2ccc3cc(CCNc4ncnc5ccc(C#N)cc45)ccc3c2)CC1` showed an intrinsic clearance, human liver microsomes of 81.8 mL/min/kg and an intrinsic clearance, rat liver microsomes of 238 mL/min/kg.
`CNC(=O)[C@H]1O[C@@H](n2cnc3c(NCc4cccc(I)c4)ncnc32)[C@H](O)[C@@H]1O` gave an intrinsic clearance, human liver microsomes of 195 mL/min/kg and an intrinsic clearance, rat liver microsomes of 3690 mL/min/kg.
For `Cn1cnnc1CNc1ccccc1C#N`, the MDR1-MDCK efflux ratio was 4.56; the intrinsic clearance, human liver microsomes was at most 4.74 mL/min/kg; the intrinsic clearance, rat liver microsomes is at most 10.7 mL/min/kg; the aqueous solubility worked out at 33.6 µg/mL (≈ 158 µM).
As to `CC(C)S(=O)(=O)c1ccc2nccc(Nc3ccc4scnc4c3)c2c1`, the MDR1-MDCK efflux ratio worked out at 14.6 and the aqueous solubility came to 38.5 µg/mL (≈ 100 µM).
For the compound `Cc1nccc(-c2cccc(NCC(=O)NCc3ccccc3)c2)n1`, the intrinsic clearance, human liver microsomes is 62.8 mL/min/kg and the intrinsic clearance, rat liver microsomes is 653 mL/min/kg.
Turning to `Cc1cc(C(=O)N(C)CC2CCN(CCO)CC2)cc(C)n1`, the MDR1-MDCK efflux ratio stood at 1.95; the intrinsic clearance, human liver microsomes stood at 7.92 mL/min/kg; the intrinsic clearance, rat liver microsomes was 29.2 mL/min/kg.
